Reference: patent US11207301B2, “Sphingosine 1 phosphate receptor agonists for neuroprotection” (RECEPTOS LLC, priority 2017, dated 2021)

What was measured:
Recombinant human MAO-B = biological target: T1, Recombinant human MAO-B (Homo sapiens, UniProt P27338); assay: MAO-B inhibition, conversion of kynuramine to 4-hydroxyquinoline; assay type: biochemical
T1 construct: purchased Sigma-Aldrich M7441; host or cells: baculovirus infected insect cells
T1 sequence (P27338 1-520): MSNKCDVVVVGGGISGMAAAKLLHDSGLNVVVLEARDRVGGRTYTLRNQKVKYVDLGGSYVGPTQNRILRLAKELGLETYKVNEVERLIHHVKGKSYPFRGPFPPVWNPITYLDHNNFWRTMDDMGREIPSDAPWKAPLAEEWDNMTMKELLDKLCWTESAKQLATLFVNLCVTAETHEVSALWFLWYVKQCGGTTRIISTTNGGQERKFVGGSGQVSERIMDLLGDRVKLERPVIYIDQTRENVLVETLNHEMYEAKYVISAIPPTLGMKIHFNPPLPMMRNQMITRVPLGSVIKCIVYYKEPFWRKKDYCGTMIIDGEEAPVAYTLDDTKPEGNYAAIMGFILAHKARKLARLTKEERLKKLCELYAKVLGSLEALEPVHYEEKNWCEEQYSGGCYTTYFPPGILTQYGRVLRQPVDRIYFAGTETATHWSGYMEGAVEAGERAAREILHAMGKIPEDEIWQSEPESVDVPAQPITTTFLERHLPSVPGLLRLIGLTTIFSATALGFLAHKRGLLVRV
Experimental: (§1) The effect of a S1P receptoragonist on MAO-B activity can be assessed by measuring the inhibition of conversion of substrate kynuramine to 4-hydroxyquinoline as described in Example 4.
(§2) Compound 1 and Compound 2-S were evaluated for their ability to inhibit MAO-A and MAO-B. Inhibition of the conversion of kynuramine, a substrate for MAO-A and MAO-B, to 4-hydroxyquinoline was used to assess the inhibitory potential of Compound 1 and Compound 2-S. Recombinant human MAO-A (product number M7316) and MAO-B (product number M7441) expressed in baculovirus infected insect cells were obtained from Sigma-Aldrich, Saint Louis, Mo. USA were used as a source of purified MAOs.
(§3) Recombinant MAO-A (0.01 mg/mL, final concentrations) and MAO-B (0.02 mg/mL, final concentration) were diluted to desired concentrations in 100 mM potassium phosphate buffer (pH 7.4) containing 5 mM MgCl2. The diluted protein fractions were preincubated with various concentrations of each test compound at 37° C. for 2 min. The concentrations used were 100, 33, 10, 3.3, 1.0, 0.33 μM and acetonitrile/DMSO as vehicle control for MAO-A and 1.0, 0.3, 0.1, 0.03, 0.01, 0.003 μM and acetonitrile/DMSO as vehicle control for MAO-B. The reaction was started by addition of kynuramine to the incubation mixture. The final concentration of kynuramine was 40 μM for MAO-A and 25 μM for MAO-B. The total incubation volume was 0.250 mL. This concentration was selected to be close to the Km values of MAO-A (Km 42 μM) and MAO-B (Km 26 μM). After 10 min of incubation, aliquots (100 μL) of the reaction mixture were taken and added to 200 μL acetonitrile containing 0.5 μM IS (acetaminophen). The reaction product, 4-hydroxyquinoline was analyzed by LC-MS/MS as described below.
MS characterization and detection of kynuramine and 4-hydroxyquinoline was performed using ABI 4000 Sciex QTrap mass spectrometer utilizing a Turbo Spray. The mass spectrometer was controlled by Analyst v1.6.2. The ESI was operated in a positive ion mode and the experimental parameters were set as follows: ion spray voltage, 2000; source temperature, 550° C.; curtain gas, 20; collision gas, medium ion source gas 1, 55; ion source gas 2, 50. […]
(§4) The gradient system was used to separate the analytes with a flow rate of 0.5 ml/min using mobile phase A, water containing 0.1% formic acid and mobile phase B, acetonitrile containing 0.1% formic acid. […] The analytes were monitored using multiple reaction monitoring and the ion transitions (Q1/Q3) were as follows: 4-hydroxyquinoline 146/104 (collision energy, CE was 27; declustering potential, DP, 50, and IS (acetaminophen), 152/110 (collision energy, CE was 27; declustering potential, DP, 50). All data were analyzed using AB Sciex Analyst v1.6.2 software.

[1] = test system: cuprizone-induced mouse model of demyelination; assay: Cuprizone-induced mouse model of demyelination / neuroprotection; assay type: in vivo, C57BL/6 mice; conditions: 1 mg/kg; vehicle 258±49.1, p<0.001
Excerpt: The effect of a S1P receptor agonist on spinal cord axial demyelination or reduction in axonal breaks can be assessed by measuring concentration of neurofilament light chain (NfL) in the plasma. NfL is released to the plasma following axonal injury and degeneration. Histological examination of axons with antineurofilament H non-phosphorylated mouse antibody SMI-32 can also be used to assess axonal demyelination or breaks. NfH is phosphorylated in healthy axons and unphosphorylated in damaged axons. In addition, the effects of ozanimod on the CNS were examined in vivo using the cuprizone-induced mouse model of demyelination and in vitro in primary rodent astrocytes. Efficacy of ozanimod or compound (2-R) was examined in the cuprizone-induced mouse model of neuroprotection. C57BL/6 mice were treated with cuprizone (0.3% weight/weight orally) and rapamycin (10 mg/kg intraperitoneally daily) to demyelinate axons in the brain and concurrently treated with ozanimod (0.1, 0.3, or 1 mg/kg) or compound (2-S) (1 mg/kg) by daily oral gavage to investigate its neuroprotective activity. Neuroprotection was assessed through examination of axonal pathology in the corpus callosum using SMI-32 (antineurofilament H non-phosphorylated mouse monoclonal antibody) staining, functional assessment through kinematic gait analysis and the plasma biomarker neurofilament light chain (NfL). Further, direct activity of ozanimod was examined in resting and activated primary rodent astrocytes in vitro.

Recombinant human MAO-A = biological target: T2, Recombinant human MAO-A (Homo sapiens, UniProt P21397); assay: MAO-A inhibition, conversion of kynuramine to 4-hydroxyquinoline; assay type: biochemical
T2 construct: purchased Sigma-Aldrich M7316; host or cells: baculovirus infected insect cells
T2 sequence (P21397 1-527): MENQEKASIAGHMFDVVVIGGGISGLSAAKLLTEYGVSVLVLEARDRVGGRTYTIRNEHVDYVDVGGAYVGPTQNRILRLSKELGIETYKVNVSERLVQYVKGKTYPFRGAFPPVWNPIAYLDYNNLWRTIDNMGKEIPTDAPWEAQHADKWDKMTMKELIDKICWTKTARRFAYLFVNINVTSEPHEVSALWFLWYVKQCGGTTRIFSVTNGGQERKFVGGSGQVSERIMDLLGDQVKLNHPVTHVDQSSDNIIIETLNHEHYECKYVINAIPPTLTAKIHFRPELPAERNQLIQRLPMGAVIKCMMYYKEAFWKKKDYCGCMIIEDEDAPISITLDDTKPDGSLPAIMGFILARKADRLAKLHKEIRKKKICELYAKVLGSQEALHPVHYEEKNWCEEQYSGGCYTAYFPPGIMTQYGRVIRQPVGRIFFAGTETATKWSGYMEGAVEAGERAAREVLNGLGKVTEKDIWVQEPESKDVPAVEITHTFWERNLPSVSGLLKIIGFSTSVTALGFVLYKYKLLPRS
Experimental: as §1, §2
as §3, with “This concentration was selected to be close to the Km values of MAO-A (Km 42 μM) and MAO-B (Km 26 μM). After 10 min of incubation, aliquots (100 μL) of the reaction mixture were taken and added to 200 μL acetonitrile containing 0.5 μM IS (acetaminophen).” left out, “below. […]” for “below.”
as §4

CC(C)Oc1ccc(-c2nc(-c3cccc4c3CC[C@@H]4N)no2)cc1C#N [Compound 2-S]
MAO-B inhibition (in words) (Recombinant human MAO-B): inhibitory activity | IC50 (Recombinant human MAO-B; kynuramine 25 μM, 10 min incubation): 32 nM | plasma biomarker NfL [1]: 127 ± 12.2 pg/mL | IC50 (Recombinant human MAO-A; kynuramine 40 μM, 10 min incubation): 1200 nM | MAO-A inhibition (in words) (Recombinant human MAO-A; tested up to 100 μM): inhibitory activity
